{"source": "patent US5922582A", "about": "“Indole alkaloid type compound 0089-D” (HIGETA SHOYU Co., Ltd., priority 1998, dated 1999)", "key": {"[1]": {"test_system": "Nocardia brasiliensis IFM 0089", "assay": "Susceptibility to antibiotics of the producing strain", "assay_type": "cell-based", "experimental": "The present strain was cultured in a medium (brain heart infusion containing 2% glucose) at 250 rpm at 30° C. for 72 hours with shaking, and the cells grown in the medium was harvested by centrifugation (3000 rpm×10 minutes) and washed twice with distilled water. Further, the cells were washed with ethanol and then dried under vacuum to give the dried cells. The amino acid composition, sugar composition and lipid composition of the cell wall of this dried cells were examined on the basis of Bergey's Manual of Determinative Bacteriology, 9th ed., Williams, Baltimore, 1993. Meso-diaminopimelic acid was detected in the amino acid analysis, and arabinose and galactose were detected in the sugar analysis. The presence of mycolic acid was confirmed from the result of the lipid analysis, and its type was Nocardia type. Isoprenoid quinone, i.e., a cell lipid component was confirmed to contain MK-8 (H4) cycle as a major component. The present strain was identified as Nocardia brasiliensis, further from its ability to assimilate casein, hypoxanthine and tyrosine and from its production pattern of acid from sugar and its susceptibility pattern to antimicrobial agents as shown in Table 4 (Mikami & Yazawa, Susceptibility pattern of pathogenic Nocardia to some selected antimicrobial agents and their usefulness in the identification work in a clinical laboratory: Bull. JFCC \"Bulltein of the Japan Federation for Culture Collections\", 5: 89-95, 1989)."}, "[2]": {"test_system": "cultured tumor cells (P388, P388/ADR, L1210 and KB)", "assay": "Cytotoxicity on the cultured tumor cells, overall (MTT)", "assay_type": "cell-based", "conditions": "in words", "experimental": "(§1) Cytotoxicity of compound 0089-D on cultured tumor cell lines, P388, adriamycin resistant P388 (P388/ADR), L1210 and KB was examined in the following manner.\n(§2) L1210 was suspended in RPMI1640 medium, P388 and P388/ADR in RPMI1640 medium containing 20 μM of 2-mercaptoethanol, and KB in Dulbecco's MEM medium (any medium contained 10% fetal bovine serum) respectively whereby cell suspension (5.6×10^4 cells/ml) were prepared. The test sample was dissolved in methanol and diluted serially with each medium to give solutions containing the test sample at various concentrations. […] 72 hours thereafter, cell growth was measured by the following calorimetric assay method using 3-(4,5-dimethyl-2-thiazolyl)-2,5-diphenyl-2H-tetrazolium bromide (MTT).\n(§3) That is, 20 μl of 2 mg/ml MTT solution was added to each well and the cells were incubated for 4 hours at 37° C. Thereafter, 50 μl of 50% dimethylformamide solution containing 20% sodium dodecyl sulfate was added to each well to dissolve the formed violet formazan crystal, and its absorbance at 570 nm was measured in a microplate reader (immunoreader) and used as an indicator of the growth. […]\n(§4) Degree of inhibition=[1--(absorbance in the presence of test sample)/(absorbance in the absence of test sample)]×100"}, "[3]": {"test_system": "Nocardia transvalensis IFM0333", "assay": "Antimicrobial activity, MIC", "assay_type": "cell-based", "conditions": "Nocardia transvalensis IFM0333, Muller Hinton broth, 37° C., 24 hours", "experimental": "(§5) The antimicrobial activity of compound 0089-D on various microorganisms was confirmed by determining minimum inhibitory concentration (MIC) on growth.\n(§6) The MIC of compound 0089-D for various microorganisms was determined in a Muller Hinton broth (BBL) containing 0.2% glucose according to the regulations of the Japan Chemotherapy Association (The Essentials of Antibiotics, 4th ed., Tokyo University Press, 1992).\n(§7) Each test microorganism was prepared at density of 1×10^6 cfu/ml in the above medium to prepare a test microorganism liquid.\n(§8) The test sample (compound 0089-D) was dissolved in methanol and diluted in the above Muller Hinton broth by subjecting it to serial 2-fold dilution starting at the concentration of 1 mg/ml. 180 μl of the test microorganism liquid and 20 μl of the test sample solution were put through a pipette to a 96-well micro-titer plate and incubated at 37° C. 24 hours thereafter, growth was examined by the eye to determine MIC."}, "N. brasiliensis IFM0236": {"test_system": "N. brasiliensis IFM0236", "assay": "Antimicrobial activity, MIC", "assay_type": "cell-based", "conditions": "N. brasiliensis IFM0236, Muller Hinton broth, 37° C., 24 hours", "experimental": "as §5, §6, §7, §8"}, "M. phlei ATCC11758": {"test_system": "M. phlei ATCC11758", "assay": "Antimicrobial activity, MIC", "assay_type": "cell-based", "conditions": "Mycolicibacterium phlei; M. phlei ATCC11758, Muller Hinton broth, 37° C., 24 hours", "experimental": "as §5, §6, §7, §8"}, "[4]": {"test_system": "Micrococcus luteus IFM2066", "assay": "Antimicrobial activity, MIC", "assay_type": "cell-based", "conditions": "Micrococcus luteus IFM2066, Muller Hinton broth, 37° C., 24 hours", "experimental": "as §5, §6, §7, §8"}, "N. asteroides IFM0319": {"test_system": "N. asteroides IFM0319", "assay": "Antimicrobial activity, MIC", "assay_type": "cell-based", "conditions": "Nocardia asteroides; N. asteroides IFM0319, Muller Hinton broth, 37° C., 24 hours", "experimental": "as §5, §6, §7, §8"}, "N. nova IFM0290": {"test_system": "N. nova IFM0290", "assay": "Antimicrobial activity, MIC", "assay_type": "cell-based", "conditions": "N. nova IFM0290, Muller Hinton broth, 37° C., 24 hours", "experimental": "as §5, §6, §7, §8"}, "M. flavescens ATCC14474": {"test_system": "M. flavescens ATCC14474", "assay": "Antimicrobial activity, MIC", "assay_type": "cell-based", "conditions": "Mycolicibacterium flavescens; M. flavescens ATCC14474, Muller Hinton broth, 37° C., 24 hours", "experimental": "as §5, §6, §7, §8"}, "N. farcinica IFM0284": {"test_system": "N. farcinica IFM0284", "assay": "Antimicrobial activity, MIC", "assay_type": "cell-based", "conditions": "Nocardia farcinica; N. farcinica IFM0284, Muller Hinton broth, 37° C., 24 hours", "experimental": "as §5, §6, §7, §8"}, "[5]": {"test_system": "N. otitidiscaviarum IFM0239", "assay": "Antimicrobial activity, MIC", "assay_type": "cell-based", "conditions": "N. otitidiscaviarum IFM0239, Muller Hinton broth, 37° C., 24 hours", "experimental": "as §5, §6, §7, §8"}, "Bacillus subtilis PCI189": {"test_system": "Bacillus subtilis PCI189", "assay": "Antimicrobial activity, MIC", "assay_type": "cell-based", "conditions": "Bacillus subtilis PCI189, Muller Hinton broth, 37° C., 24 hours", "experimental": "as §5, §6, §7, §8"}, "[6]": {"test_system": "N. pseudobrasiliensis IFM0624", "assay": "Antimicrobial activity, MIC", "assay_type": "cell-based", "conditions": "N. pseudobrasiliensis IFM0624, Muller Hinton broth, 37° C., 24 hours", "experimental": "as §5, §6, §7, §8"}, "[7]": {"test_system": "Mycobacterium smegmatis ATCC607", "assay": "Antimicrobial activity, MIC", "assay_type": "cell-based", "conditions": "Mycolicibacterium smegmatis; Mycobacterium smegmatis ATCC607, Muller Hinton broth, 37° C., 24 hours", "experimental": "as §5, §6, §7, §8"}, "P388 cells": {"test_system": "P388 cells", "assay": "Cytotoxicity on cultured tumor cell line P388 (MTT)", "assay_type": "cell-based", "conditions": "Mus musculus, P388, 72 hours, read-out: IC50 (growth of tumor cells)", "experimental": "as §1, §2, §3, §4"}, "[8]": {"test_system": "adriamycin-resistant P388 (P388/ADR) cells", "assay": "Cytotoxicity on adriamycin resistant P388 (P388/ADR) (MTT)", "assay_type": "cell-based", "conditions": "72 hours, read-out: IC50 (growth of tumor cells)", "experimental": "as §1, §2, §3, §4"}, "L1210 cells": {"test_system": "L1210 cells", "assay": "Cytotoxicity on cultured tumor cell line L1210 (MTT)", "assay_type": "cell-based", "conditions": "Mus musculus, L1210, 72 hours, read-out: IC50 (growth of tumor cells)", "experimental": "as §1, §2, §3, §4"}, "various microorganisms": {"test_system": "various microorganisms", "assay": "Antimicrobial activity on various microorganisms, overall", "assay_type": "cell-based", "conditions": "in words", "experimental": "as §5, §6, §7\n(§9) To determine MIC for fungi, Sabouraud's Dextrose liquid medium was used and the density of the test fungi was 1×10^4 cfu/ml.\nas §8"}, "KB cells": {"test_system": "KB cells", "assay": "Cytotoxicity on cultured tumor cell line KB (MTT)", "assay_type": "cell-based", "conditions": "Homo sapiens, 72 hours, read-out: IC50 (growth of tumor cells)", "experimental": "as §1, §2, §3, §4"}, "Solubility": {"assay": "Solubility", "assay_type": "physicochemical"}, "[9]": {"test_system": "Candida albicans ATCC90028", "assay": "Antimicrobial activity, MIC (fungi)", "assay_type": "cell-based", "conditions": "Candida albicans ATCC90028, Sabouraud's Dextrose liquid medium, 37° C., 24 hours", "experimental": "as §5, §6, §9, §8"}, "[10]": {"test_system": "Aspergillus niger ATCC40606", "assay": "Antimicrobial activity, MIC (fungi)", "assay_type": "cell-based", "conditions": "Aspergillus niger ATCC40606, Sabouraud's Dextrose liquid medium, 37° C., 24 hours", "experimental": "as §5, §6, §9, §8"}, "Micrococcus luteus": {"test_system": "Micrococcus luteus", "assay": "Paper disk method, growth inhibition of Micrococcus luteus", "assay_type": "cell-based", "conditions": "nutrient agar, 30° C., 24 hours", "experimental": "The resulting culture, 150 L, was filtered through a filter cloth whereby the cells were recovered. The operation of extracting the cells was carried out by adding 20 L methanol. The thus-obtained extract was concentrated and evaporated into dryness in an evaporator. 1 L distilled water was added to 4 g of the dried matter to give a suspension, which was then partitioned and extracted 3 times with 1 L of n-hexane. The n-hexane fraction, 3 L, was concentrated and evaporated into dryness in an evaporator, dissolved in 8 ml of an n-hexane:ethyl acetate mixture (20:1) and subjected to silica gel chromatography (column 6 cm×20 cm). After impurities were eluted with 2 L of an n-hexane : ethyl acetate mixture (20 1), compound 0089-D was eluted with 2 L of an n-hexane:ethyl acetate mixture (10:1). Detection of compound 0089-D in the eluted fraction was carried out using growth inhibitory activity on a test microorganism Micrococcus luteus as the indicator by the following paper disk method.\nThe eluted fraction was adsorbed onto a paper disk and placed on a nutrient agar medium (Difco) on which M. luteus had been spread, and then incubated at 30° C. for 24 hours."}}, "data": [{"smiles": "C[C@@H](O)[C@H]1C(=O)N2C(C(=O)O)=C(SCCN=CN)C[C@H]12", "note": "[imipenem]", "values": [{"measurement": "Susceptibility to antibiotics", "setting": "[1]", "result": "negative"}]}, {"smiles": "NC[C@H]1O[C@H](O[C@H]2[C@H](O)[C@@H](O[C@H]3O[C@H](CO)[C@@H](O)[C@H](N)[C@H]3O)[C@H](N)C[C@@H]2N)[C@H](N)C[C@@H]1O", "note": "[tobramycin]", "values": [{"measurement": "Susceptibility to antibiotics", "setting": "[1]", "result": "positive"}]}, {"smiles": "NC[C@H]1O[C@H](O[C@H]2[C@H](O)[C@@H](O[C@H]3O[C@H](CO)[C@@H](O)[C@H](N)[C@H]3O)[C@H](N)C[C@@H]2N)[C@H](O)[C@@H](O)[C@@H]1O", "note": "[kanamycin]", "values": [{"measurement": "Susceptibility to antibiotics", "setting": "[1]", "result": "negative"}]}, {"smiles": "O=c1[nH]cc(F)c(=O)[nH]1", "note": "[Compound 5-FU, 5-FU]", "values": [{"measurement": "Susceptibility to antibiotics", "setting": "[1]", "result": "negative"}]}, {"smiles": "[C-]#[N+]C(=C\\c1cn(C)c2ccccc12)/C=C/C(=C)C", "note": "[Compound 0089-D]", "values": [{"measurement": "cytotoxicity on the cultured tumor cells", "setting": "[2]", "result": "strong cytotoxicity"}, {"measurement": "MIC", "setting": "[3]", "result": 3.13, "unit": "µg/mL"}, {"measurement": "MIC", "setting": "N. brasiliensis IFM0236", "result": 25, "unit": "µg/mL"}, {"measurement": "MIC", "setting": "M. phlei ATCC11758", "result": 1.56, "unit": "µg/mL"}, {"measurement": "MIC", "setting": "[4]", "result": 3.13, "unit": "µg/mL"}, {"measurement": "MIC", "setting": "N. asteroides IFM0319", "result": 12.5, "unit": "µg/mL"}, {"measurement": "MIC", "setting": "N. nova IFM0290", "result": 1.56, "unit": "µg/mL"}, {"measurement": "MIC", "setting": "M. flavescens ATCC14474", "result": 3.13, "unit": "µg/mL"}, {"measurement": "MIC", "setting": "N. farcinica IFM0284", "result": 12.5, "unit": "µg/mL"}, {"measurement": "MIC", "setting": "[5]", "result": 6.25, "unit": "µg/mL"}, {"measurement": "MIC", "setting": "Bacillus subtilis PCI189", "result": 3.13, "unit": "µg/mL"}, {"measurement": "MIC", "setting": "[6]", "result": 3.13, "unit": "µg/mL"}, {"measurement": "MIC", "setting": "[7]", "result": 0.78, "unit": "µg/mL"}, {"measurement": "IC50", "setting": "P388 cells", "result": 0.44, "unit": "µg/mL"}, {"measurement": "IC50", "setting": "[8]", "result": 0.56, "unit": "µg/mL"}, {"measurement": "IC50", "setting": "L1210 cells", "result": 0.25, "unit": "µg/mL"}, {"measurement": "antimicrobial spectrum", "setting": "various microorganisms", "result": "wide antimicrobial spectrum"}, {"measurement": "IC50", "setting": "KB cells", "result": 0.75, "unit": "µg/mL"}, {"measurement": "Solubility", "setting": "Solubility; ether", "result": "Soluble"}, {"measurement": "Solubility", "setting": "Solubility; ethyl acetate", "result": "Soluble"}, {"measurement": "Solubility", "setting": "Solubility; hexane", "result": "Slightly soluble"}, {"measurement": "Solubility", "setting": "Solubility; methanol", "result": "Soluble"}, {"measurement": "Solubility", "setting": "Solubility; water", "result": "Insoluble"}, {"measurement": "MIC", "setting": "[9]", "result": 25, "unit": "µg/mL"}, {"measurement": "MIC", "setting": "[10]", "result": 0.39, "unit": "µg/mL"}, {"measurement": "inhibition zone of growth", "setting": "Micrococcus luteus", "result": "inhibition zone of growth of M. luteus"}]}]}
